Test results: PubChem BioAssay AID248 (DTP/NCI, 2004)
Values joined by “and” are separate entries in the source; they are usually repeats but may differ in a detail not shown here. Equal entries are not always repeated. Toxic doses and inconclusive results are not listed.

Tested on: L1210 leukemia ip in BDF1 mice, survival T/C
Assay: NCI In Vivo Anticancer Drug Screen. Data for tumor model L1210 Leukemia (intraperitoneal) in B6D2F1 (BDF1) mice
Conditions: endpoint: mean survival time, higher = longer survival
In short: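 Read-out is survival time, reported as the treated-group measurement over the vehicle-control measurement.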

[1] = dose: 100.0 mg/kg/injection, schedule: Q04DX003 (ip), vehicle: saline with Tween-80
[2] = dose: 100.0 mg/kg/injection, schedule: Q04DX002 (ip), vehicle: Klucel (hydroxypropylcellulose) (HPC)
[3] = dose: 200.0 mg/kg/injection, schedule: Q04DX002 (ip), vehicle: Klucel (hydroxypropylcellulose) (HPC)
[4] = dose: 400.0 mg/kg/injection, schedule: Q04DX002 (ip), vehicle: Klucel (hydroxypropylcellulose) (HPC)
[5] = dose: 100.0 mg/kg/injection, schedule: Q01DX001 (ip), vehicle: carboxymethylcellulose (CMC)
[6] = dose: 200.0 mg/kg/injection, schedule: Q01DX001 (ip), vehicle: carboxymethylcellulose (CMC)
[7] = dose: 400.0 mg/kg/injection, schedule: Q01DX001 (ip), vehicle: carboxymethylcellulose (CMC)
[8] = dose: 100.0 mg/kg/injection, schedule: Q01DX001 (ip), vehicle: saline
[9] = dose: 200.0 mg/kg/injection, schedule: Q01DX001 (ip), vehicle: saline
[10] = dose: 400.0 mg/kg/injection, schedule: Q01DX001 (ip), vehicle: saline
[11] = dose: 100.0 mg/kg/injection, schedule: Q04DX003 (ip), vehicle: Klucel (hydroxypropylcellulose) (HPC)
[12] = dose: 200.0 mg/kg/injection, schedule: Q04DX003 (ip), vehicle: Klucel (hydroxypropylcellulose) (HPC)
[13] = dose: 400.0 mg/kg/injection, schedule: Q04DX003 (ip), vehicle: Klucel (hydroxypropylcellulose) (HPC)
[14] = dose: 100.0 mg/kg/injection, schedule: Q01DX001 (ip), vehicle: saline with Tween-80
[15] = dose: 100.0 mg/kg/injection, schedule: Q01DX009 (ip), vehicle: saline with Tween-80
[16] = dose: 200.0 mg/kg/injection, schedule: Q01DX001 (ip), vehicle: saline with Tween-80
[17] = dose: 200.0 mg/kg/injection, schedule: Q01DX009 (ip), vehicle: saline with Tween-80
[18] = dose: 400.0 mg/kg/injection, schedule: Q01DX009 (ip), vehicle: saline with Tween-80
[19] = dose: 100.0 mg/kg/injection, schedule: Q04DX002 (ip), vehicle: saline
[20] = dose: 200.0 mg/kg/injection, schedule: Q04DX002 (ip), vehicle: saline
[21] = dose: 100.0 mg/kg/injection, schedule: Q01DX009 (ip), vehicle: saline
[22] = dose: 200.0 mg/kg/injection, schedule: Q01DX009 (ip), vehicle: saline
[23] = dose: 100.0 mg/kg/injection, schedule: Q01DX009 (ip), vehicle: other

SMILES: Cc1cccc([N+](=O)[O-])n1
- T/C (dose: 25.0 mg/kg/injection, schedule: Q01DX009 (ip), vehicle: saline with Tween-80): 94 % of control
- T/C (dose: 50.0 mg/kg/injection, schedule: Q01DX009 (ip), vehicle: saline with Tween-80): 94 % of control
- T/C [1]: 89 % of control

SMILES: CN(C)CC(OCCCc1ccccc1)C(Cl)(Cl)Cl (stereo unspecified)
- T/C [1]: 109 % of control
- T/C (dose: 200.0 mg/kg/injection, schedule: Q04DX003 (ip), vehicle: saline with Tween-80): 101 % of control

SMILES: COc1ccc(NC(=O)c2ccc(Cl)cc2Cl)cc1
- T/C [2]: 111 % of control
- T/C [3]: 104 % of control
- T/C [4]: 101 % of control

SMILES: N#CC1(C#N)C2C=CC(C2)C1(C#N)C#N
- T/C (dose: 6.25 mg/kg/injection, schedule: Q01DX009 (ip), vehicle: saline with Tween-80): 97 % of control
- T/C (dose: 12.5 mg/kg/injection, schedule: Q01DX009 (ip), vehicle: saline with Tween-80): 97 % of control

SMILES: N#CC1(N(O)C(=O)Nc2ccccc2Cl)CCCCC1
- T/C [5]: 100 % of control
- T/C [6]: 96 % of control
- T/C [7]: 91 % of control

SMILES: CC(=O)OC1C=CC(=O)OC1C1OC1C (stereo unspecified)
- T/C (dose: 4.0 mg/kg/injection, schedule: Q01DX Z (ip), vehicle: saline): 100 % of control
- T/C (dose: 6.0 mg/kg/injection, schedule: Q01DX Z (ip), vehicle: saline): 111 % of control
- T/C (dose: 9.0 mg/kg/injection, schedule: Q01DX Z (ip), vehicle: saline): 110 % of control
- T/C (dose: 13.0 mg/kg/injection, schedule: Q01DX Z (ip), vehicle: saline): 100 % of control and 108 % of control
- T/C (dose: 19.0 mg/kg/injection, schedule: Q01DX Z (ip), vehicle: saline): 103 % of control
- T/C (dose: 29.0 mg/kg/injection, schedule: Q01DX Z (ip), vehicle: saline): 103 % of control

SMILES: c1ccc2c(c1)oc1cc3ccncc3cc12
- T/C [8]: 96 % of control
- T/C [9]: 94 % of control
- T/C [10]: 102 % of control

SMILES: CCOc1ccccc1C1CCCCC1OS(=O)(=O)c1ccc(C)cc1 (stereo unspecified)
- T/C (dose: 50.0 mg/kg/injection, schedule: Q01DX009 (ip), vehicle: acetone): 92 % of control
- T/C (dose: 100.0 mg/kg/injection, schedule: Q01DX009 (ip), vehicle: acetone): 94 % of control and 92 % of control
- T/C (dose: 200.0 mg/kg/injection, schedule: Q01DX009 (ip), vehicle: acetone): 105 % of control and 90 % of control

SMILES: O=C(COc1ccccc1)Oc1c(Cl)c(Cl)c(Cl)c(Cl)c1Cl
- T/C (dose: 100.0 mg/kg/injection, schedule: Q01DX001 (ip), vehicle: Klucel (hydroxypropylcellulose) (HPC)): 96 % of control
- T/C [11]: 103 % of control
- T/C (dose: 200.0 mg/kg/injection, schedule: Q01DX001 (ip), vehicle: Klucel (hydroxypropylcellulose) (HPC)): 92 % of control
- T/C [12]: 103 % of control
- T/C (dose: 400.0 mg/kg/injection, schedule: Q01DX001 (ip), vehicle: Klucel (hydroxypropylcellulose) (HPC)): 98 % of control
- T/C [13]: 95 % of control

SMILES: COC(=O)N1C2CCC(C2=C(C)C)N1C(=O)OC
- T/C (dose: 50.0 mg/kg/injection, schedule: Q04DX003 (ip), vehicle: Klucel (hydroxypropylcellulose) (HPC)): 105 % of control
- T/C [11]: 102 % of control
- T/C [12]: 94 % of control

SMILES: CC1CC2NC(C)CC3NC(C)CC(N1)N32 (stereo unspecified)
- T/C [11]: 106 % of control
- T/C [12]: 97 % of control
- T/C [13]: 111 % of control

SMILES: CCOC(=O)C1c2cccc(O)c2C=CN1C(C)=O (stereo unspecified)
- T/C (dose: 100.0 mg/kg/injection, schedule: Q04DX003 (ip), vehicle: saline): 101 % of control
- T/C (dose: 200.0 mg/kg/injection, schedule: Q04DX003 (ip), vehicle: saline): 97 % of control
- T/C (dose: 400.0 mg/kg/injection, schedule: Q04DX003 (ip), vehicle: saline): 104 % of control

SMILES: O=C1c2ccccc2-c2c(Br)c3ccccc3c(=O)n21
- T/C (dose: 50.0 mg/kg/injection, schedule: Q01DX001 (ip), vehicle: carboxymethylcellulose (CMC)): 91 % of control
- T/C [5]: 89 % of control
- T/C [6]: 91 % of control
- T/C [7]: 94 % of control

SMILES: CC1(C)CCC(C)(C)c2cc(O)ccc21
- T/C [8]: 94 % of control
- T/C [11]: 92 % of control
- T/C [9]: 96 % of control
- T/C [12]: 92 % of control
- T/C [10]: 89 % of control
- T/C [13]: 87 % of control

SMILES: NS(=O)(=O)c1ccc(NC(=O)Nc2ccccc2F)cc1
- T/C [14]: 102 % of control
- T/C [15]: 98 % of control and 104 % of control
- T/C (dose: 100.0 mg/kg/injection, schedule: Q04DX002 (ip), vehicle: saline with Tween-80): 93 % of control and 97 % of control
- T/C [16]: 101 % of control
- T/C [17]: 93 % of control and 102 % of control
- T/C (dose: 200.0 mg/kg/injection, schedule: Q04DX002 (ip), vehicle: saline with Tween-80): 98 % of control and 105 % of control
- T/C (dose: 400.0 mg/kg/injection, schedule: Q01DX001 (ip), vehicle: saline with Tween-80): 90 % of control
- T/C [18]: 98 % of control and 102 % of control
- T/C (dose: 400.0 mg/kg/injection, schedule: Q04DX002 (ip), vehicle: saline with Tween-80): 96 % of control and 97 % of control

SMILES: CCOC(=O)CNCC(O)C(Cl)(Cl)Cl (stereo unspecified)
- T/C [15]: 92 % of control
- T/C [17]: 86 % of control

SMILES: C=CC[Se]CC=C
- T/C [11]: 106 % of control
- T/C [12]: 121 % of control

SMILES: C/C(=N\N1CCCCC1)c1ccc(NC(=O)C(Cl)Cl)cc1
- T/C [15]: 106 % of control
- T/C [17]: 97 % of control
- T/C [18]: 89 % of control

SMILES: CCOC(=O)NOP(=O)(N1CC1(C)C)N1CC1(C)C (stereo unspecified)
- T/C [19]: 207 % of control
- T/C [20]: 86 % of control

SMILES: O=C(O)C(CCc1ccccc1)(CCc1ccccc1)C(=O)O
- T/C [21]: 95 % of control
- T/C [22]: 94 % of control
- T/C (dose: 400.0 mg/kg/injection, schedule: Q01DX009 (ip), vehicle: saline): 111 % of control

SMILES: CCOC(=O)NCC(CCN1CCCCC1)(CCN1CCCCC1)c1cccc2ccccc12
- T/C [11]: 107 % of control

SMILES: O=[N+]([O-])c1ccc(C(F)(F)F)cc1
- T/C (dose: 50.0 mg/kg/injection, schedule: Q01DX009 (ip), vehicle: other): 104 % of control
- T/C [23]: 101 % of control

SMILES: CCc1cccc2c1C(=O)OC2=O
- T/C [21]: 94 % of control
- T/C [22]: 91 % of control

SMILES: CC(C)NC(=O)C1CC2c3cccc4c3c(cn4CN(C)C)CC2N(C)C1 (stereo unspecified)
- T/C (dose: 2.5 mg/kg/injection, schedule: Q04DX003 (ip), vehicle: saline): 101 % of control
- T/C (dose: 5.0 mg/kg/injection, schedule: Q04DX003 (ip), vehicle: saline): 101 % of control
- T/C (dose: 10.0 mg/kg/injection, schedule: Q04DX003 (ip), vehicle: saline): 100 % of control
- T/C (dose: 12.5 mg/kg/injection, schedule: Q04DX002 (ip), vehicle: saline): 113 % of control
- T/C (dose: 20.0 mg/kg/injection, schedule: Q04DX003 (ip), vehicle: saline): 101 % of control
- T/C (dose: 25.0 mg/kg/injection, schedule: Q04DX002 (ip), vehicle: saline): 108 % of control

SMILES: CCS(=O)(=O)c1nc2ccccc2[nH]1
- T/C [2]: 97 % of control
- T/C [3]: 108 % of control
- T/C [4]: 108 % of control

SMILES: CCOC(=O)C(Cl)c1ccc(OC)cc1 (stereo unspecified)
- T/C [23]: 111 % of control
- T/C (dose: 200.0 mg/kg/injection, schedule: Q01DX009 (ip), vehicle: other): 98 % of control
- T/C (dose: 400.0 mg/kg/injection, schedule: Q01DX009 (ip), vehicle: other): 102 % of control

SMILES: CC1CCc2ccccc2N1C1=NCCO1 (stereo unspecified)
- T/C (dose: 19.0 mg/kg/injection, schedule: Q04DX003 (ip), vehicle: saline): 97 % of control
- T/C (dose: 38.0 mg/kg/injection, schedule: Q04DX003 (ip), vehicle: saline): 94 % of control
- T/C (dose: 75.0 mg/kg/injection, schedule: Q01DX001 (ip), vehicle: saline): 102 % of control

SMILES: O=C(O)c1ccc(CCc2cccnc2)cc1
- T/C [14]: 96 % of control
- T/C [16]: 98 % of control

SMILES: CCO/C(C)=N/N(C)c1n[n+]([O-])ccc1C
- T/C [19]: 189 % of control
- T/C [20]: 96 % of control
- T/C (dose: 400.0 mg/kg/injection, schedule: Q04DX002 (ip), vehicle: saline): 96 % of control
